According to US20250064846A1, “TREATMENT AND PREVENTION OF TRIGEMINAL NEURALGIA” (THE JOHNS HOPKINS UNIVERSITY, priority 2022, published 2025):
“Also recorded” adds a separate entry of the source.

Columns and labels:
TRPA1 = biological target: T1, TRPA1 (Homo sapiens, UniProt O75762); assay: Calcium imaging of HEK293 cells transiently expressing WT TRPA1; assay type: cell-based; conditions: for inhibition of TRPA1 channel activity: applied after 4-HNE, 1 μM exemestane, 100 μM JQ-1, 10 μM sulforaphane; for activation of TRPA1: exemestane 1-100 μm, JQ-1 as high as 100 μM, 10 μM sulforaphane
T1 construct: expressed in transfected cells; host or cells: HEK293
Procedure: Calcium Imaging and Analysis Calcium imaging and analysis was performed as previously described (See Meixiong, J. et al. Elife 8, (2019)). Briefly, cells were imaged in calcium imaging buffer (CIB; 10 mM HEPES, 1.2 mM NaHCO3, 130 mM NaCl, 3 mM KCl, 2.5 mM CaCl2, 0.6 mM MgCl2, 20 mM glucose, and 20 mM sucrose at pH 7.4 and 290-300 mOsm). To monitor changes in intracellular [Ca^2+]([Ca^2+]i), cells were loaded with either 1 μM Fura 2-AM (HEK293 cells) or 1 μM Fluo 4-AM (trigeminal neurons) for 30 min in the dark at 37° C. in CIB just prior to imaging. With Fura 2-AM, emission at 510 nm was monitored following excitation at both 340 nm and 380 nm. With Fluo 4-AM, emission at 520 nm was monitored following excitation at 488 nm. Cells were identified as positively responding if [Ca^2+]i rose by 15% compared to baseline. Damaged, detached, high-baseline, and motion-activated cells were excluded from analysis.
HEK293 cells were plated on poly-D-lysine-coated coverslips and transiently transfected with the vector backbone or constructs encoding WT or mutant TRPA1. Unless otherwise noted, cells were imaged for 30 s to establish a baseline before compounds were added. Vehicle was first applied for 30 s, after which 100 μM iodoacetamide, 1 mM H2O2, or 100 μM 4-HNE was applied. CSF from cases and controls was diluted into calcium imaging buffer 1:50 prior to each trial. 50 μM of the non-selective TRP channel inhibitor ruthenium red was applied at the end of every imaging trial.

[1] = test system: constrictive mouse model of trigeminal neuralgia; assay: Cold allodynia (ice-cold acetone) after constriction of the maxillary nerve; assay type: in vivo; conditions: for cold allodynia (ice-cold acetone): WT mice, i.p. daily for two days before surgery and daily after behavior testing, sulforaphane, exemestane, letrozole 10 mg/kg, JQ-1 40 mg/kg, ascorbate 100 mg/kg, vs vehicle
Procedure: Constriction of the Maxillary Nerve Constriction of the maxillary division of trigeminal nerve was performed as previously described (See Benedetti, A., et al., Biochimica Et Biophysica Acta Bba—Lipids Lipid Metabolism 620, 281-296 (1980) and Vos, B., et al J Neurosci 14, 2708-2723 (1994)). The procedure was performed under direct visualization and control with a surgical microscope. Mice were first anesthetized with ketamine (100 mg/kg, i.p.) and xylazine (12.5 mg/kg, i.p.) and monitored by pinching the skin between the toes with forceps and monitoring for withdrawal. Mice were restrained with adhesive tape to a sterilized polystyrene board. Upon sufficient anesthesia, the scalp was shaved and an anterior to posterior skin incision was made at the midline to expose the nasal and maxillary bones. The maxillary nerve was exposed and carefully dissected free from the surrounding connective tissue. The distal end of the maxillary nerve was then loosely constricted using 8-0 silk sutures as a ligature. The sutures were tied using a slip knot followed by a normal knot, after which any remaining suture was cut free. The incision was then closed with a 4-0 silk suture. In the sham procedure, the left maxillary nerve was exposed but not constricted. Mice were monitored and rehydrated until fully recovered from anesthesia.
Pharmacologic Treatments Mice were dosed with either sulforaphane (10 mg/kg, i.p.), exemestane (10 mg/kg, i.p.), letrozole (10 mg/kg, i.p.), (+)-JQ-1 (40 mg/kg, i.p.), (−)-JQ-1 (40 mg/kg, i.p.), or ascorbate (100 mg/kg, i.p.) as indicated below. Mice were first dosed daily for two days before surgery and again daily just after behavior testing. For local exemestane treatment, exemestane (5 μL, 25 μg total) was applied directly to the maxillary nerve. Mice received a single dose during surgery. Mice were dosed with AM-0902 (30 mg/kg, p.o.). Mice were treated with AM-0902 were dosed 30 min prior to behavior testing. Mice were dosed with tamoxifen (75 mg/kg, i.p.). Mice were dosed once every 24 hrs over 5 consecutive days. Behavioral and molecular tests were only performed 7 or more days after the final tamoxifen injection.
Cold Allodynia Cold allodynia was assessed in C57BL/6J, TRPA1^+/+, TRPA1^−/−, Keap1(f/f), and Keap1(f/f)/CMV-CreER mice using ice-cold acetone as previously outlined (See Yoon, C., et al., Pain 59, 369-376 (1994)). Animals were placed individually in transparent plastic boxes and allowed to acclimatize to the environment for at least 30 min before testing. After habituation, 20 μl of cold acetone was applied to the ligated vibrissal pad skin surface. Cold allodynia was measured as the average time spent wiping the region in a 60 s period, with a maximum of 5 seconds between bouts of wiping. Allodynia was measured three times with 10 min between intervals. Changes in cold allodynia were considered relative to sham- or vehicle-treated animal controls. Behavior was assessed concomitantly or in a blocked manner with consideration for both genotype and treatment.

NRF2 = NRF2 stability, ubiquitination and nuclear translocation in HEK-293 cells overexpressing FLAG-KEAP1 and myc-NRF2; assay type: cell-based; conditions: for stabilization of NRF2 / nuclear translocation of NRF2: 10 μM for 6 hours; for nuclear translocation of NRF2: nuclear myc-NRF2 vs vehicle; for inhibition of NRF2 ubiquitination: HEK-293 cells overexpressing FLAG-KEAP1, myc-NRF2 and HA-ubiquitin
Procedure: To determine a ratio of KFAP1 to NRF2 cDNA that best mimics baseline NRF2 activity, luciferase activity was measured 48 h after transfection with varying ratios of KEAP1 to NRF2 cDNA, normalized to total protein (FIG. 21A). Luciferase expression is controlled by a promoter that contains several NRF2 binding sites and is thus a measure of NRF2 activity. A 2.5 μg KFAP1 to 1 μg NRF2 cDNA ratio returned luciferase activity to baseline and was therefore employed for subsequent biochemical studies evaluating NRF2 stability and nuclear translocation. FIGS. 21B and 21C show the quantification (FIG. 21B) and immunoblots (FIG. 21C) of myc-NRF2, GAPDH, and H2B in whole cell lysates and cytoplasmic and nuclear subcellular fractions of HEK-293 cells overexpressing FLAG-KEAP1 and myc-NRF2, treated with vehicle, 10 μM MG-132, 10 μM sulforaphane (SF), 10 μM exemestane, or 10 μM JQ-1 for 6 hours. Data are expressed as a normalized ratio of nuclear myc-NRF2 compared to the vehicle-treated condition. FIG. 21D is immunoblots of lysates (input) and myc immunoprecipitate (IP) from HEK-293 cells overexpressing FLAG-KEAP1, myc-NRF2, and HA-ubiquitin. Data are either representative of or quantified from n=3 independent experiments except in FIG. 21A, where n=1 in triplicate. In FIG. 21A, mean f SEM depicted. In FIG. 21B, median and range depicted. *=P<0.05 and ns=P>0.05 by one-way ANOVA followed by post-hoc Dunnett's test.

T1 sequence (O75762 whole entry): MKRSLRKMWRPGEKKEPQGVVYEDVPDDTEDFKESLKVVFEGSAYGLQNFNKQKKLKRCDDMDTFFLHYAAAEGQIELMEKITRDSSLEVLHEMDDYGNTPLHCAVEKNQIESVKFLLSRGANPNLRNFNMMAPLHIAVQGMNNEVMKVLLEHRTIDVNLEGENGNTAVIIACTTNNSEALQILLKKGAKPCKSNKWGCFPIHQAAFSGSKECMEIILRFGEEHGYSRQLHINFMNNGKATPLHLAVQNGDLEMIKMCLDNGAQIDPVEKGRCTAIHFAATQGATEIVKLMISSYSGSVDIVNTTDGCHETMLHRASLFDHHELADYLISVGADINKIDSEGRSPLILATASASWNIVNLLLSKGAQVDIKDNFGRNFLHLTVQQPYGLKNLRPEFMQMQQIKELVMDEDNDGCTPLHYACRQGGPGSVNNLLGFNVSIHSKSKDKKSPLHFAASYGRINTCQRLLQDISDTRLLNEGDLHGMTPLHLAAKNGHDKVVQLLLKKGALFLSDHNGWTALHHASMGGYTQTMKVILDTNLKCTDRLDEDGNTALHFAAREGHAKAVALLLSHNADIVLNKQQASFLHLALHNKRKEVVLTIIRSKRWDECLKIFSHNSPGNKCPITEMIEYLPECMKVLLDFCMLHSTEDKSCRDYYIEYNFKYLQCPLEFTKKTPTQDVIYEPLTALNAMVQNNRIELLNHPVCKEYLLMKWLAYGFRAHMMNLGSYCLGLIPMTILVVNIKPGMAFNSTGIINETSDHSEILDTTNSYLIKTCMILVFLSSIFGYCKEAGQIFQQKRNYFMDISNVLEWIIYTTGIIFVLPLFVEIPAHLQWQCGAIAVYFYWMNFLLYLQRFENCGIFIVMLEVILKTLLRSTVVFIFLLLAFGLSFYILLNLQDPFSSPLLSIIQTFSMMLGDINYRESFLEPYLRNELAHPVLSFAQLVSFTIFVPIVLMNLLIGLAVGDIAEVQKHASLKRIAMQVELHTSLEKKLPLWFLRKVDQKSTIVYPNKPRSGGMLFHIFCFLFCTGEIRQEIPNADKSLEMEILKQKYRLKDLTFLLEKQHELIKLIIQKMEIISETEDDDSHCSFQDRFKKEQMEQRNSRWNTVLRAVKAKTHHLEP

Compound | inhibition of TRPA1 channel activity (TRPA1) | activation of TRPA1 (TRPA1) | cold allodynia (ice-cold acetone) [1] | cold allodynia (ice-cold acetone) ([1]; listed as (+)-JQ-1) | stabilization of NRF2 (NRF2) | nuclear translocation of NRF2 (NRF2) | inhibition of NRF2 ubiquitination (NRF2) | cold allodynia ([1]; single local treatment, exemestane 25 μg/site applied directly to the maxillary nerve during surgery)
Cc1sc2c(c1C)C(c1ccc(Cl)cc1)=N[C@@H](CC(=O)OC(C)(C)C)c1nnc(C)n1-2 [JQ-1, (S)-tert-butyl 2-(4-(4-chlorophenyl)-2,3,9-trimethyl-6H-thieno[3,2-f][1,2,4]triazolo[4,3-a][1,4]diazepin-6-yl)acetate] | Neither sulforaphane, exemestane, nor JQ-1 inhibited TRPA1 channel activity | do not activate TRPA1 | much less sensitive | lowered | neither stabilizes NRF2 | does not | nor inhibits its ubiquitination | 
C=C1C[C@@H]2[C@H](CC[C@]3(C)C(=O)CC[C@@H]23)[C@@]2(C)C=CC(=O)C=C12 [exemestane, 6-methylenandrosta-1,4-diene-3,17-dione] | Neither sulforaphane, exemestane, nor JQ-1 inhibited TRPA1 channel activity | did not activate TRPA1 | much less sensitive; also recorded: lowered |  | both sulforaphane and exemestane do | promote nuclear translocation of NRF2 | both sulforaphane and exemestane do | lessened
C[S+]([O-])CCCCN=C=S (centres unmarked) [sulforaphane, 1-isothiocyanato-4-(methanesulfinyl)butane] | Neither sulforaphane, exemestane, nor JQ-1 inhibited TRPA1 channel activity | Neither sulforaphane nor JQ-1 activate TRPA1 | less sensitive |  | both sulforaphane and exemestane do | promote nuclear translocation of NRF2 | both sulforaphane and exemestane do | 
